# Measured values reported in ChEMBL document CHEMBL1201862, “PubChem BioAssay data set” (2004).
# Active and inactive are the calls of the source.
# Legend:
# [1] = biological target: Protein-tyrosine kinase 2-beta (Homo sapiens, UniProt Q14289);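 also: potency of inhibitors of PYK2 kinase phosphorylation of poly-GT substrate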
# [2] = Luminescence Cell-Based Dose Response HTS to Identify Inhibitors of 5'UTR Stem-Loop Driven Prion Protein mRNA Translation in H4 Neuroglioblastoma Cells. [Related pubchem assays: 1827 (Project Summary), 1813 (Primary HTS)]; format: functional
# [3] = alpha-synuclein stem-loop translation blockers – luminescence, H4 neuroglioblastoma cells, dose confirmation, confirmation (AID 2454); format: functional, cell-based;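 also: H4 neuroglioblastoma cells carrying an alpha-synuclein 5'UTR luciferase reporter; potency for inhibition of the luciferase signal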
# [4] = alpha-synuclein stem-loop luciferase translation blockers – H4 neuroglioma cells, luminescence, confirmation (AID 1988); format: functional, cell-based
# Streptococcus = assay: GAS UMAA2166 growth inhibition – luminescence, BacTiterGlo, counter-screen for streptokinase expression inhibitor project, dose response (AID 1915); format: functional, organism-based;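 also: potency for reduction of bacterial viability or growth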
# cells = format: functional, cell-based
# [5] = luciferase reporter signal suppression in cells – H4 neuroglioma cells, luminescence, dose response (AID 1990); format: functional, cell-based
# [6] = luciferase reporter signal reduction – luminescence, H4-C neuroglioblastoma cells, dose response (AID 2458); format: functional, cell-based;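 also: H4 neuroglioblastoma cells stably carrying a luciferase reporter gene fusion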
# [7] = system: Streptococcus sp. 'group A'; assay: Streptococcus pyogenes SK(-)GAS viability under kanamycin – luminescence, BacTiterGlo, confirmation, counter-screen for streptokinase expression inhibitor project, dose response (AID 1900); format: functional, organism-based
# [8] = Luminescence-based counterscreen assay for KLF5 inhibitors: dose response cell-based high throughput screening assay to identify cytotoxic compounds using the IEC-6 intestinal epithelial cell line. [Related pubchem assays: 1700 (Primary screen.), 1834 (Confirmation screen.), 1858 (Summary AID.), 1905 (Counterscreen.)]; format: functional
# [9] = blockade of melanocortin 4 receptor signaling – cell-based, plate reader, cherry pick, counter-screen for LGR2 antagonist project, dose response (AID 743444); format: functional;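 also: transfected HEK 293 cells stimulated with alpha-MSH peptide; potency of inhibitors of the alpha-MSH evoked signal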
# [10] = blockers of bursicon-stimulated LGR2 cAMP reporter – cell-based, HEK293, CRE-luciferase reporter, cherry pick, set 2, dose response (AID 743343); format: functional;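 also: transfected cells were stimulated with diluted bursicon conditioned medium after compound addition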
# [11] = biological target: Luciferin 4-monooxygenase (Photinus pyralis, UniProt P08659); assay: inhibition of purified Photinus pyralis luciferase – biochemical, luminescence, dose response (AID 1891)
# Chain of Luciferin 4-monooxygenase (P08659 whole entry): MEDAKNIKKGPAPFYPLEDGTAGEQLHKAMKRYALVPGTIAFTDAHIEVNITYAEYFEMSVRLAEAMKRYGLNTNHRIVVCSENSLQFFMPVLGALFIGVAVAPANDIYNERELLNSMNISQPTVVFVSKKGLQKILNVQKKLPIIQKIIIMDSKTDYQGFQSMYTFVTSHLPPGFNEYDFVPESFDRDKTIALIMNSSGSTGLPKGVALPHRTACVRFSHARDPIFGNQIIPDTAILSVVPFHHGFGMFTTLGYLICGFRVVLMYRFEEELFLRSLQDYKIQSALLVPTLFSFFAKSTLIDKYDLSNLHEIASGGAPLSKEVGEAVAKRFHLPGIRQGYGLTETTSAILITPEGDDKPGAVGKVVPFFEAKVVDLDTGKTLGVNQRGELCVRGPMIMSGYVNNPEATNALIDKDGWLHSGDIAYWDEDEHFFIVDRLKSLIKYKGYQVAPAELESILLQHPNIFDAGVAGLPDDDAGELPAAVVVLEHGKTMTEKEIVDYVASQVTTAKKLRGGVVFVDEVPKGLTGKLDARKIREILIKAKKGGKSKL
# [12] = Luminescence Cell-Based Dose Confirmation HTS to Identify Inhibitors of Platelet Dense Granule Release. [Related pubchem assays: 1663 (Primary HTS), 1678 (Summary of Project)]; format: functional
# [13] = viability loss in HEK293 cells – cell-based, plate reader, cherry-picked samples, cytotoxicity control, dose response (AID 743446); format: functional
# HEK293 = assay: Fluorescence-based counterscreen for potentiators or agonists of NPY-Y2: cell-based high-throughput dose response assay to identify inhibitors of cyclic nucleotide gated ion channel (CNGC) activity. In this assay, the parental HEK293 cell line transfected with a cyclic-nucleotide gated ion channel (CNGC)-based cAMP sensor is used to measure inhibition of isoproterenol-induced CNGC activity by test compound.; format: functional; details: Homo sapiens;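 also: stimulus is 1 µM isoproterenol at EC100 plus PDE inhibitor Ro 20-1724 at 25 µM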
# [14] = biological target: Neuropeptide Y receptor type 1 (Homo sapiens, UniProt P25929); assay: Fluorescence-based counterscreen for agonists of NPY-Y2: cell-based high-throughput dose response assay for agonists of NPY-Y1.; format: functional
# Chain of Neuropeptide Y receptor type 1 (P25929 whole entry): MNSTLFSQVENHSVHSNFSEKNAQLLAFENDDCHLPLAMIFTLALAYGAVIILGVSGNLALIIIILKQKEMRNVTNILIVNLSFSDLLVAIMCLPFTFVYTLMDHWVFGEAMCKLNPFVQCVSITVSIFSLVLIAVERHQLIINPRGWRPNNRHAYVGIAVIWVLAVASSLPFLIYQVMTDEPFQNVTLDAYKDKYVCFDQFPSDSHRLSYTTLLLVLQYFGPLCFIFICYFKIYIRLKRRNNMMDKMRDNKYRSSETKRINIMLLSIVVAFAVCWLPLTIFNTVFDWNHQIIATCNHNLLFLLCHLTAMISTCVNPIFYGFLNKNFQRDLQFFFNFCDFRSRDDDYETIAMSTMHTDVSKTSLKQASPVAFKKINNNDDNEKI
# [15] = biological target: Neuropeptide Y receptor type 2 (Homo sapiens, UniProt P49146); assay: Fluorescence-based cell-based high-throughput dose response assay for agonists of NPY-Y2. [Related pubchem assays: 1703 (Screening assay (CNGC inhibitors).), 1359 (Screening assay (NPY-Y2 potentiators or agonists).), 1304 (Screening assay (NPY-Y1 potentiators or agonists).), 1710 (Screening assay (NPY-Y2 agonists).), 1791 (Summary AID.)]; format: functional
# Chain of Neuropeptide Y receptor type 2 (P49146 whole entry): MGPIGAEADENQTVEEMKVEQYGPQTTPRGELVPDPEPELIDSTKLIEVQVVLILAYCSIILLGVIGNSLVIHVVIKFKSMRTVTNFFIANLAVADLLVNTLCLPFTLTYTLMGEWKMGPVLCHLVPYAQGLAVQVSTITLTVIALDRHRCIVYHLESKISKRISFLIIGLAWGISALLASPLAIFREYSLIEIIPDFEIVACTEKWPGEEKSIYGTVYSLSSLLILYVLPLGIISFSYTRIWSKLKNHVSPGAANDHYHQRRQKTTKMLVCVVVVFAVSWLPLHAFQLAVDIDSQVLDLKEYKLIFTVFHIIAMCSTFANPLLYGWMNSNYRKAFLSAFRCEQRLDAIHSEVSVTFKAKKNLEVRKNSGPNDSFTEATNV
# Large T antigen = Large T antigen (Simian virus 40, UniProt P03070); format: functional, Betapolyomavirus macacae;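 also: Confirmatory-stage PubChem screen for compounds that inhibit SV40 T antigen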
# Chain of Large T antigen (P03070 whole entry): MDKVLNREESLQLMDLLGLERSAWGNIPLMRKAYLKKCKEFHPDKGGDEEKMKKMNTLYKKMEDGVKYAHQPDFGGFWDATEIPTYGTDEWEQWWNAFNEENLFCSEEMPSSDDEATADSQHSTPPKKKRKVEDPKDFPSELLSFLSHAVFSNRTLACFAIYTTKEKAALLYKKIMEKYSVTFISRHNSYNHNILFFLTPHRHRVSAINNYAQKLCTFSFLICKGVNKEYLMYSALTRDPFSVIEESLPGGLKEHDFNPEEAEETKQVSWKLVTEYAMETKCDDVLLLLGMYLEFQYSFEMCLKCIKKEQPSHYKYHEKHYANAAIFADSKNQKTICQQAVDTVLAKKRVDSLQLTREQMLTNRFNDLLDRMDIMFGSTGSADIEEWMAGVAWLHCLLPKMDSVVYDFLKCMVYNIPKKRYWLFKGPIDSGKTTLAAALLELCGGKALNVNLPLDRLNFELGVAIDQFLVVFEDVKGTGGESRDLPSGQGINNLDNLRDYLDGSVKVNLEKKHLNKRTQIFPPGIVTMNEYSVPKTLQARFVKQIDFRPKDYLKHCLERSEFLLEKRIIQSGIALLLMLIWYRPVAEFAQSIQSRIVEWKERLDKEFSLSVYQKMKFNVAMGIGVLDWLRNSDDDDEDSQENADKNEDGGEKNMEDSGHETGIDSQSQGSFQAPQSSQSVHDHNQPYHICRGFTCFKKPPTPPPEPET
# Coagulation factor XII = biological target: T1, Coagulation factor XII (Homo sapiens, UniProt P00748); format: functional;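 also: activated factor XIIa alpha cleaving a fluorogenic AMC peptide substrate; inhibitor potency from loss of enzyme activity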
# T1 sequence (P00748 whole entry): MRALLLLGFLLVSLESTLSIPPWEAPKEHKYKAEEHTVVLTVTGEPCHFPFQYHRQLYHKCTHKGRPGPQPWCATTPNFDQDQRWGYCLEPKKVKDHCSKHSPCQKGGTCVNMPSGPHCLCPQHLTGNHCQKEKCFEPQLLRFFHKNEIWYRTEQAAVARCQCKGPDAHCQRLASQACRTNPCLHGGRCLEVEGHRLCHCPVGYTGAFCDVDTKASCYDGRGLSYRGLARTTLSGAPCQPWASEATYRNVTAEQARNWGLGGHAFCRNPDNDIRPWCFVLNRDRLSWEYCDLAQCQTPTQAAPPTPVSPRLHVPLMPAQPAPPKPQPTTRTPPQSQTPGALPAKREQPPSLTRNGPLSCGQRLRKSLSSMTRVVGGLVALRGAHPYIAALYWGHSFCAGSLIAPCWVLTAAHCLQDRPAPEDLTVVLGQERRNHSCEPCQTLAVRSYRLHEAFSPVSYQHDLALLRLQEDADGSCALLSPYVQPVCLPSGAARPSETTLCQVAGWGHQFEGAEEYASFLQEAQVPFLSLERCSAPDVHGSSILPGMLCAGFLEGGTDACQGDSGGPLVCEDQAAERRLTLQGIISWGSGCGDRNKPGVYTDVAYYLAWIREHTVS
# [16] = Luminescence Cell-Based Dose Confirmation HTS to Identify Inhibitors of Polyadenylation.; format: functional
# NS3 = NS3 (Hepatitis C virus, UniProt A3EZJ3); assay: PubChem AID 2173; set-up: species or system Hepacivirus hominis
# Chain of NS3 (A3EZJ3 whole entry): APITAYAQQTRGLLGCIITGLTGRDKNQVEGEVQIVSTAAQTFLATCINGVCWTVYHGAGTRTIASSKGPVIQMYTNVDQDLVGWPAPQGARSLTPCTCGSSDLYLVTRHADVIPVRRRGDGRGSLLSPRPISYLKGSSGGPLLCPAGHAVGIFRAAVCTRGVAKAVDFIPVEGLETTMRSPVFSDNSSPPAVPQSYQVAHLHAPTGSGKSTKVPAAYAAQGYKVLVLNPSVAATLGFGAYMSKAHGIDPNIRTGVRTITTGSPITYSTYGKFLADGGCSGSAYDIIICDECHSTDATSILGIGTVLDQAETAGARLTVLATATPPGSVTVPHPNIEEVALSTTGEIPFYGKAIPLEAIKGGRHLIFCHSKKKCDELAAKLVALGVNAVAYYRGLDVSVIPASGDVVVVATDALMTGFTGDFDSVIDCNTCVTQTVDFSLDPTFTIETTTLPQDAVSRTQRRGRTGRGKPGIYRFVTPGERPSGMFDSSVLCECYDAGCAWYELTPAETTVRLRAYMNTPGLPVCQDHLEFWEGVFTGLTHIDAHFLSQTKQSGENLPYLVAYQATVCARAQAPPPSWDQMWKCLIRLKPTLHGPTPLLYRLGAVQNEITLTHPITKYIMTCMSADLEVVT
# [17] = biological target: T2, Heat shock factor protein 1 (Mus musculus, UniProt P38532); assay: decrease of HSF1-responsive luciferase luminescence – cell-based, NIH3T3, dose retest, confirmation (AID 2382); format: functional;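 also: NIH3T3 fibroblasts with HSF1-driven luciferase reporter stressed by proteasome inhibitor MG132; luminescence from HSF1-driven luciferase expression after 8 hours of MG132 stress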
# T2 sequence (P38532 whole entry): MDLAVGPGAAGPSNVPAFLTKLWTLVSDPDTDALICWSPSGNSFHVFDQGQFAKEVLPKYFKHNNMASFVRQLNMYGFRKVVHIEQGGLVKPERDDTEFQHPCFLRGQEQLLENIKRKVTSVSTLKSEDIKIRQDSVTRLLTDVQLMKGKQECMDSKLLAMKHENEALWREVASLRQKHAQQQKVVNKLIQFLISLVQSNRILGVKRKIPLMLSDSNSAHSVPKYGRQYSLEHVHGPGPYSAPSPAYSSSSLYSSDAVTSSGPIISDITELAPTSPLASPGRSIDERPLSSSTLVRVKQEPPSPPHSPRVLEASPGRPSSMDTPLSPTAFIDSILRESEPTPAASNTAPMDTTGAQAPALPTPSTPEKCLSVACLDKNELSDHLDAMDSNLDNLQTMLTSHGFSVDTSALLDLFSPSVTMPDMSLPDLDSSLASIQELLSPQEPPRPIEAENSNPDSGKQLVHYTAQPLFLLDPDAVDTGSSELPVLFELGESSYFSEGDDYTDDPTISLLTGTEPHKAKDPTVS
# [18] = biological target: T3, Low molecular weight phosphotyrosine protein phosphatase (Homo sapiens, UniProt P24666); format: functional; details: read-out: IC50_Mean
# T3 sequence (P24666 whole entry): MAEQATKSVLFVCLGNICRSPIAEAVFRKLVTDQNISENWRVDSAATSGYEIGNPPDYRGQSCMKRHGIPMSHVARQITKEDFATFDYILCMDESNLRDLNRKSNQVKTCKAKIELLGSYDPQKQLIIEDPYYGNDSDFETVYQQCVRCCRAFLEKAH
# [19] = biological target: T3, Low molecular weight phosphotyrosine protein phosphatase; format: functional; details: read-out: IC50_Mean; remark: listed apart in the source
# Bcl-2-related protein A1 [20] = biological target: T4, Bcl-2-related protein A1 (Mus musculus, UniProt Q07440); assay: small-molecule antagonists of Bfl-1/BH3 interaction – biochemical, TR-FRET, mouse Bfl-1, confirmation (AID 621);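 also: TR-FRET binding of GST-Bfl-1 to FITC-labelled Bid peptide via terbium antibody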
# T4 sequence (Q07440 whole entry): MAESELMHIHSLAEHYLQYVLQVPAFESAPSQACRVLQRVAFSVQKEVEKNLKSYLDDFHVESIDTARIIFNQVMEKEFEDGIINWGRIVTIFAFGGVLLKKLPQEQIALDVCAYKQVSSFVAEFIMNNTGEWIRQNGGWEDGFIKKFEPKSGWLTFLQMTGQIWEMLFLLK
# [21] = biological target: Glyceraldehyde-3-phosphate dehydrogenase (Homo sapiens, UniProt P04406)
# Chain of Glyceraldehyde-3-phosphate dehydrogenase (P04406 whole entry): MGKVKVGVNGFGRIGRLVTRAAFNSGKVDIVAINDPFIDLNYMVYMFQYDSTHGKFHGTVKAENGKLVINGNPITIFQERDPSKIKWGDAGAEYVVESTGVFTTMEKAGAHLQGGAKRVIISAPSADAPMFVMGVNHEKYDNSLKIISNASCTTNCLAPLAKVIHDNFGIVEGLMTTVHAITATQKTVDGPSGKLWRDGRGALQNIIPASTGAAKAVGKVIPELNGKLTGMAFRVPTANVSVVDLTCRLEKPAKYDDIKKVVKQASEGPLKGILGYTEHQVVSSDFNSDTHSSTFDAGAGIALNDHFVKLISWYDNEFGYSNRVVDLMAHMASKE
# Bcl-2-related protein A1 [22] = biological target: T4, Bcl-2-related protein A1; assay: Bfl-1 binding inhibitors, SAR follow-up, biochemical, fluorescence polarization (AID 1070)
# [23] = biological target: Epstein-Barr nuclear antigen 1 (Epstein-Barr virus (strain B95-8) (HHV-4) (Human herpesvirus 4), UniProt P03211); assay: inhibition of EBV nuclear antigen 1 DNA binding – biochemical, fluorescence polarization, 1536-well, dose response (AID 2381); set-up: species or system human gammaherpesvirus 4;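 also: fluorescence polarization of a Cy5 DNA probe bound by EBNA-1 protein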
# Chain of Epstein-Barr nuclear antigen 1 (P03211 whole entry): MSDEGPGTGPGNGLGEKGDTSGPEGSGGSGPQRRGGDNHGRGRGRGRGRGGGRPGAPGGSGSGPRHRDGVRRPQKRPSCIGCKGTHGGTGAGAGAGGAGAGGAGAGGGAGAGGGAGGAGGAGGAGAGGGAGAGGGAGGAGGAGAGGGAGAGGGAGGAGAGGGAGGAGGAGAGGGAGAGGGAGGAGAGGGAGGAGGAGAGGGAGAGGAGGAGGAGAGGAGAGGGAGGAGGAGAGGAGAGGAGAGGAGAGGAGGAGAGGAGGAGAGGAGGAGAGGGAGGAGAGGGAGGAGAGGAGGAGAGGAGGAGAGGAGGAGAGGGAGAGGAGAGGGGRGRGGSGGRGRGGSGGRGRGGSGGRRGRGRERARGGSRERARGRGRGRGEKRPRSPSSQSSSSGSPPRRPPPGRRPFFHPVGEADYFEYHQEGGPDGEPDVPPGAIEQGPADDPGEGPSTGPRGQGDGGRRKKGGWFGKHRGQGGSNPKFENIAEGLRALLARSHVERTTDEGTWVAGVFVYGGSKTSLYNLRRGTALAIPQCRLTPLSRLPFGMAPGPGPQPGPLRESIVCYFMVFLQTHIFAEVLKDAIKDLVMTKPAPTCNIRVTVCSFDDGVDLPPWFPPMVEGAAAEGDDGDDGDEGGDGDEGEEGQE
# [24] = biological target: Lytic switch protein BZLF1 (Epstein-Barr virus (strain B95-8) (HHV-4) (Human herpesvirus 4), UniProt P03206); assay: inhibition of BZLF1 ZTA DNA binding – biochemical, fluorescence polarization, Epstein-Barr virus, 1536-well, counter-screen for EBNA-1 inhibitor project, dose response (AID 2377); set-up: species or system human gammaherpesvirus 4;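 also: fluorescence polarization of Cy5-labelled ZRE DNA probe bound by purified Zta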
# Chain of Lytic switch protein BZLF1 (P03206 whole entry): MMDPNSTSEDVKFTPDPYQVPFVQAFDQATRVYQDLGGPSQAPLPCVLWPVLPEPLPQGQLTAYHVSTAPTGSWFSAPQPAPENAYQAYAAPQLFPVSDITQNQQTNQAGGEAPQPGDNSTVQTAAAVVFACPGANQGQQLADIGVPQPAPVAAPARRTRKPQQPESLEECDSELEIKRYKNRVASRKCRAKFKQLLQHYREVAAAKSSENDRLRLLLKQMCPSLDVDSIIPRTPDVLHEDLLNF
# [25] = biological target: Dual specificity tyrosine-phosphorylation-regulated kinase 1A (Rattus norvegicus, UniProt Q63470); format: biochemical, Homo sapiens
# [26] = antiviral protection against BTV-induced cell death – arbovirus, BSR cells, confirmation (AID 1250); format: functional;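 also: protection from viral cytopathic effect measured as cell viability by ATP luminescence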
# Protein skinhead-1 = biological target: T5, Protein skinhead-1 (Caenorhabditis elegans, UniProt P34707); format: functional
# T5 sequence (P34707 whole entry): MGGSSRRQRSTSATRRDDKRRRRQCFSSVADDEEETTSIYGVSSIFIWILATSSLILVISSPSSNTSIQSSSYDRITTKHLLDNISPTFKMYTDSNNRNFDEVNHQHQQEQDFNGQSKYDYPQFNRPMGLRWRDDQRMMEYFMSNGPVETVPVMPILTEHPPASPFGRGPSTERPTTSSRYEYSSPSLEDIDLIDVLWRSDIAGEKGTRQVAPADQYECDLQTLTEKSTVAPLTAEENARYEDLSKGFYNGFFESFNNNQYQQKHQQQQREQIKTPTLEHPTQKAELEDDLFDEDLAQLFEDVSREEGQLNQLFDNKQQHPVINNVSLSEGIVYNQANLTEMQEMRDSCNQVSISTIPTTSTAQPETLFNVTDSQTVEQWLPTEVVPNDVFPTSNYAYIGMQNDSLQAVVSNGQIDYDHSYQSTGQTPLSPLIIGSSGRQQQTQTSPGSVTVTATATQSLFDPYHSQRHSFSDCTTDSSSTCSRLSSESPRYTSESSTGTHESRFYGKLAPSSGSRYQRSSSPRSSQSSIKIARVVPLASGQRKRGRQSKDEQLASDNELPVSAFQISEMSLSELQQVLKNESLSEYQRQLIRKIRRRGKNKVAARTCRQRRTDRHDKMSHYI
# Chain of Protein-tyrosine kinase 2-beta (Q14289 whole entry): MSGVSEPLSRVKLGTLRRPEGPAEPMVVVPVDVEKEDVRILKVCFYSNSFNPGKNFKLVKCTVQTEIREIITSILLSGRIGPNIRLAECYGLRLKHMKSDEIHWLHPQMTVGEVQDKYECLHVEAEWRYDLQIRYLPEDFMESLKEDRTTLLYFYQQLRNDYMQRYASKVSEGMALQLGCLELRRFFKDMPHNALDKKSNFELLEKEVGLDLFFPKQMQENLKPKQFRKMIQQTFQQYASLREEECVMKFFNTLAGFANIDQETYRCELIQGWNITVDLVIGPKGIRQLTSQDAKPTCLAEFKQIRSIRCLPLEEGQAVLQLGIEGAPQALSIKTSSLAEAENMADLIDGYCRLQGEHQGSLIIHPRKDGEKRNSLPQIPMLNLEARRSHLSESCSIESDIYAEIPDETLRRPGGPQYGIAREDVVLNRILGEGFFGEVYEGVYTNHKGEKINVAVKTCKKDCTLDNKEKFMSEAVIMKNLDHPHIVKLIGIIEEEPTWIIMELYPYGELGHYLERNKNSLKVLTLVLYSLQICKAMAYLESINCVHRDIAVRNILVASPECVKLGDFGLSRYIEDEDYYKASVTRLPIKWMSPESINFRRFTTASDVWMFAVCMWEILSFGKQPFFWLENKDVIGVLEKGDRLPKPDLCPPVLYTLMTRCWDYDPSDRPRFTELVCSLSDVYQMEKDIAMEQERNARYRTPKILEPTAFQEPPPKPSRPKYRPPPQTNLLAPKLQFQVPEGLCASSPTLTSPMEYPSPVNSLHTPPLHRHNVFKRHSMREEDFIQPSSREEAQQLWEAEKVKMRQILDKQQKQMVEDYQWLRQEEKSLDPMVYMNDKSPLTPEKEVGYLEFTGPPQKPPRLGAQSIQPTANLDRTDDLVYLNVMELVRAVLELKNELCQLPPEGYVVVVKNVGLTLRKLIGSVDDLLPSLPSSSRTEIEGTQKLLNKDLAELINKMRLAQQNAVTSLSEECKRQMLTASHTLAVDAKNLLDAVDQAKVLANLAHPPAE
structure (smiles),measurement,setting,value
c1ccc(-c2nccc(-c3ccc(-n4cnc5ccccc54)cc3)n2)cc1,IC50,[1],2.64 µM (active)
CCc1ccc2c(c1)C1(NN=C(c3cccc4ccccc34)S1)C(=O)N2 (centres undefined),EC50,[2],< 0.1 µM (active)
same,EC50,[3],2.85 µM (inconclusive)
same,EC50,[4],< 0.1 µM (active)
same,EC50,Streptococcus,0.706 µM (active)
same,EC50,cells,0.875 µM (active)
same,EC50,[5],38.5 µM (active)
same,EC50,[6],1.25 µM (active)
same,EC50,[7],< 0.06 µM (active)
O=C(Nc1cccc(O)c1)c1cc(-c2ccc3c(c2)OCO3)on1,IC50,[8],> 39.8 µM (not active)
same,EC50,[2],> 120 µM (not active)
same,AC50,[9],5.8 µM (active)
same,EC50,[4],5.97 µM (active)
same,AC50,[10],4.08 µM (active)
same,EC50,[11],0.349 µM (active)
same,EC50,[12],1.71 µM (active)
same,AC50,[13],6.57 µM (active)
CCSc1nnc(NC(=O)CCNS(=O)(=O)c2cc(Br)cnc2N)s1,EC50,HEK293,9.32 µM (active)
same,EC50,[14],11.7 µM (not active)
same,EC50,[15],13.7 µM (not active)
O=C(O)CN1C(=O)/C(=C/c2ccc(N3CCCCC3)o2)SC1=S,IC50,Large T antigen,31.7 µM (active)
same,IC50,Coagulation factor XII,> 50 µM (inactive)
same,EC50,[16],10.6 µM (active)
CCCCOc1ccc(C2C(C(=O)c3ccc(C)o3)=C(O)C(=O)N2Cc2ccco2)cc1 (centres undefined),IC50,NS3,3.26 µM (active)
same,EC50,[17],46.6 µM (active)
same,IC50,[18],54.5 µM (inactive)
same,IC50,[19],> 80 µM (inactive)
O=C1C(Cl)=C(Cl)C(=O)N1c1cccc(Cl)c1,IC50,Bcl-2-related protein A1 [20],5.17 µM (active)
same,IC50,[21],> 100 µM (not active)
same,IC50,Bcl-2-related protein A1 [22],3.41 µM (active)
COc1ccc(C2CC(C(F)(F)F)n3nc(C(=O)Nc4ccc5c(c4)OCO5)cc3N2)cc1 (centres undefined),IC50,Coagulation factor XII,> 50 µM (inactive)
same,IC50,[23],9.48 µM (active)
same,IC50,[24],> 111 µM (not active)
COc1cccc(N2CCN(S(=O)(=O)c3ccc(-c4cnc(C5CC5)o4)cc3)CC2)c1,IC50,[23],6.91 µM (active)
same,IC50,[24],> 111 µM (not active)
N#Cc1c(C(F)(F)F)cc(-c2cccc(Cl)c2)nc1O,AC50,[25],7.04 µM (active)
same,IC50,[26],42.9 µM (active)
CC(C)CC(NC(=O)c1ccc(Cl)cc1)C(=O)OCc1cc([N+](=O)[O-])cc2c1OCOC2 (centres undefined),EC50,HEK293,> 35.4 µM (not active)
same,EC50,[14],> 35.4 µM (not active)
same,EC50,[15],> 35.4 µM (not active)
Clc1ccc(-n2nnc(-c3cccnc3)n2)cc1Cl,IC50,Protein skinhead-1,57.3 µM (inactive)
same,IC50,Bcl-2-related protein A1 [20],> 100 µM (not active)
same,IC50,Bcl-2-related protein A1 [22],> 100 µM (not active)
CC(Oc1ccccc1)C(=O)Nc1oc(-c2ccco2)c(-c2ccco2)c1C#N (centres undefined),IC50,NS3,16.7 µM (not active)
